According to patent US10188677B2, “Iron supplement composition” (THE D DROPS COMPANY INC., priority 2011, dated 2019):
Marks after values point to notes of the source that are not given here.

Tests used:
Type in all cases: physicochemical
[1] = Dispersion: number of test tube inversions to achieve even dispersion of iron salt in carrier liquid; conditions: for Dispersion (# of inversions): 66 mg/mL elemental iron
Protocol: (§1) Iron salt in the form of ferrous sulfate (dried) and ferrous fumarate were investigated for dispersibility and settling behavior in a range of carrier liquids. Sufficient iron salt was added to test tubes to achieve concentrations of elemental iron equivalent to 66 mg/mL suspension (i.e., 2 mg/drop, a commercially-viable concentration for infant supplementation).
The initial preparation of dry powder iron salts into suspension was achieved by weighing the desired amount of dry powder, which was added to the liquid in a capped test tube. The combination was shaken for about two minutes, and it was then allowed to settle overnight to promote thorough particle whetting.
Suitability of the preparation for suspension was next tested by counting the number inversions of the test tube inversions required to achieve an even dispersion of particles in the carrier liquid. Each replicate began with iron salt fully settled at the bottom of the test tube.

[2] = Settling: time for iron salt particulate to show evidence of settling in carrier liquid
Protocol: Settling behavior was also tested for each carrier liquid. Test tubes of carrier liquid were loaded with either ferrous sulfate (dried) or ferrous fumarate at concentrations of 66 mg/mL of elemental iron. […] Settling was then allowed to proceed and the time required for the iron salt particulate to show evidence of settling was recorded. Evidence of settling was considered as a reduction in opacity throughout the top 1 cm of liquid in the test tube.

[3] = Drop consistency for Eurodropper dispensing
Protocol: Drop consistency was examined to determine suitability of various dispersions for Eurodropper dispensing. Preparations of various iron salts, at concentrations of 66 mg/mL, were made using medium chain triglyceride oil. Each sample was shaken vigorously and then inverted to dispense 10 drops. This was repeated until 60 drops were dispensed.
The effect of carrier liquid type on drop consistency was next examined. Preparations of ferrous fumarate (149 μm particle size) were prepared and drop consistency was measured using similar methodology to that described above.

[4] = Viscosity and density of carrier liquids
Protocol: as §1

[5] = carrier: medium chain triglyceride
[6] = carrier: medium chain triglyceride, 66 mg/mL elemental iron
[7] = carrier: olive oil, 66 mg/mL elemental iron
[8] = carrier: rapeseed oil, 66 mg/mL elemental iron
[9] = iron salt 66 mg/mL in medium chain triglyceride oil

SMILES | Dispersion (# of inversions) [1, 5] | Dispersion (# of inversions) ([1]; carrier: olive oil) | Dispersion (# of inversions) ([1]; carrier: rapeseed oil) | Dispersibility ([1]; water-based preparations) | Settling [2, 6] | Settling [2, 7] | Settling [2, 8] | Dispensing of dispersion from the Eurodropper [3, 9] | further results
O=C([O-])/C=C/C(=O)[O-].[Fe+2] [Ferrous fumarate, ferrous fumarate] | 56.4 ± 10.6 # of inversions | 84.0 ± 1.4 # of inversions | 167.0 ± 7.0 # of inversions | very easily | 16.3 ± 1.2 s | 95.5 ± 4.9 s | 144.0 ± 5.7 s |  | Dispersibility ([1]; carrier: medium chain triglyceride oil, relative to the other carriers): acceptably rapid; Dispersion (# of inversions) ([1]; carrier: water): 4.3 ± 0.6 # of inversions; Settling ([2]; carrier: water, 66 mg/mL elemental iron): 1.0 ± 0.5 s; Settling ([2]; in water): extremely rapid settling; Average 10 Drop Weight (mg ± SD) ([3]; ferrous fumarate 149 μm particle size, carrier: canola oil): 284.8 ± 4.7 mg; Average 10 Drop Weight (mg ± SD) ([3]; ferrous fumarate 149 μm particle size, carrier: medium chain triglyceride): 276.2 ± 3.0 mg; Average 10 Drop Weight (mg ± SD) ([3]; ferrous fumarate 149 μm particle size, carrier: olive oil): 285.8 ± 3.5 mg; Average 10 Drop Weight (mg ± SD) ([3]; ferrous fumarate 149 μm particle size, carrier: water): Occluded *; Average 10 Drop Weight (mg ± SD) ([3]; iron salt 66 mg/mL in medium chain triglyceride oil, Eurodropper, 60 drops, listed as Ferrous fumarate (Sigma, XXX μm)): 264.7 ± 10.2 mg; Average 10 Drop Weight (mg ± SD) ([3]; iron salt 66 mg/mL in medium chain triglyceride oil, Eurodropper, 60 drops, listed as Ferrous fumarate (Watson, 149 μm)): 277.0 ± 10.3 mg; Performance in the Eurodropper ([3]; regardless of carrier liquid): consistent performance
O=S(=O)([O-])[O-].[Fe+2] [Ferrous sulfate (dried), ferrous sulfate (dried)] | 7.3 ± 0.6 # of inversions | 27.3 ± 4.5 # of inversions | 62.0 ± 6.0 # of inversions | not at all | 42.3 ± 8.5 s | 213.3 ± 7.6 s | 238.7 ± 5.9 s | ** Dispersion failed to dispense at all from the Eurodropper because the powder clumped in the oil, and occluded opening. | 
O=P([O-])([O-])OP(=O)([O-])[O-].[Fe+2].[Fe+2] [Ferrous pyrophosphate] |  |  |  |  |  |  |  | * Dispersion failed to dispense from the Eurodropper after 15 drops. | Average 10 Drop Weight (mg ± SD) ([3]; iron salt 66 mg/mL in medium chain triglyceride oil, Eurodropper, 60 drops): 266 * mg
O [Water] |  |  |  |  |  |  |  |  | Density [4]: 1 g/mL; Viscosity ([4]; @ 20° C.): 1 cP
